One assay concerns endothelial cells. Briefly: Endothelial cell proliferation inhibition assay. In kind it is cell-based, bovine. The note with it: endothelial cells with 20 ng/ml fibroblast growth factor, four days growth, cell count; for IC50, inhibition of endothelial cell proliferation: average of 4 wells; for IC50: molar figure in parentheses. As to the method:
Primary retinal capillary endothelial cell cultures were prepared in substantial accordance with the procedure described in Buzney et al., Retinal Vascular Endothelial Cells and Pericytes: Differential Growth Characteristics in vitro, Invest. Ophthalmol. Visual Sci. 24: 470-483 (1983) and separated from contaminating cells as described in Voyta et al., Identification and Isolation of Endothelial Cells Based on their Increased Uptake of Acetylated-low density Lipoprotein, J. Cell Biol. 99: 2034-2040 (1981).
Alternatively, bovine heart endothelial cells were obtained (American Type Culture Collection; Rockville, Md. 20852) for use in the assay. Irrespective of source, the endothelial cells were seeded into 24 well tissue culture plates at a cell density of 10,000 cells/well in Dulbecco's modified Eagle Medium (GIBCO; Grand Island, N.Y.) supplemented with 5% bovine serum albumin, 1% penicillin-streptomycin, 1% L-glutamine, and 20 ng/ml fibroblast growth factor. Immediately after seeding the cells, various amounts of PF-4 (Sigma Chemical Co.; St. Louis, Mo. 63178), MPF-4, or CPF-4 (isolated as describe in the above examples) were added to individual growth wells. MPF-4 and CPF-4 were tested at final concentrations ranging from 0.001 to 1 μ/ml. For comparison, native PF-4 was tested over a range of 0.001 to 3 μ/ml, and supplemented medium alone served as the negative control. The endothelial cell cultures were allowed to grow for four days at 37 C., 5% CO2 in a humidified tissue culture incubator. The cultures were then harvested individually by trypsinization and counted using a Zm-Coulter Counter (Coulter Electronics. Inc.; Opa Locka, Fla. 33054).
The results were plotted in FIG. 1, and each point on the graph represented the average of 4 data points; ie […]. […] The inhibitory concentration for MPF-4 is close to the physiological range of PF-4 found in human plasma (Id.).

Assay [1] is described as follows: Heparin affinity chromatography. The following applies: elute in high-affinity heparin binding fraction (0.7M to 2.0M NaCl). An excerpt: The eluted proteins are then contacted with a heparin affinity resin. The ordinarily skilled artisan will readily realize that this step is best achieved in a column chromatography mode. Heparin affinity columns are commercially available from some of the same vendors mentioned above. In this step, the molecules of interest, both MPF-4 or CPF-4, bind to the heparin column and are eluted using an increasing linear salt gradient. The preferred salt is NaCl, and the portion of the gradient that is preferably collected is the 0.1-2.0M portion. The more highly preferred portion of the gradient to collect is the 0.7-2.0M portion.
The C4-pool was further fractionated by heparin affinity chromatography on a Econo-pac™ 5 ml heparin-sepharose cartridge (BioRad, Richmond, Calif. 94804). The bound proteins were eluted by a linear gradient of 0 to 2.0M NaCl in phosphate buffer saline (PBS) at a flow rate of 2.0 ml/min. The proteins that eluted from the column were pooled into three fractions: (1) non-heparin binding (flow through), (2) low-affinity heparin binding (0 to 0.7M NaCl), and (3) high-affinity heparin binding (0.7M to 2.0M NaCl) fractions.

The record followed here is patent publication US5538949A, “Modified platelet factor-4 and cleaved platelet factor 4” (Eli Lilly and Company, priority 1995, dated 1996).

Positions of bridges follow the written chain, without caps; N, C: chain ends. Chains are numbered I, II in the order given. No end group written: not given here.

In the case of “MPF-4: 54 amino acid protein, SEQ ID NO:1; homologous with the 54 C-terminal residues of PF-4, beginning with Ser-17 (SQVRPRHITSLEVIKAGPHCPTAQLIATLKNGRKICLDLQAPLYKKIIKKLLES)”, in the assay with endothelial cells, the “IC50, inhibition of endothelial cell proliferation” value (“IC50, inhibition” below) fell in the range of 0.03 to 0.05 µg/mL and the IC50 (usually the midpoint of a concentration-inhibition curve) is ~7 nM. For the same molecule, in assay [1], the heparin binding result is recorded as “bind heparin”.

For “PF-4: native human platelet factor-4 (Sigma Chemical Co.), tested for comparison [reference compound]”, in the assay on endothelial cells, the “IC50, inhibition” value lay in the range of 0.8 to 1 µg/mL and the half-maximal inhibitory concentration (IC50) was ~130 nM.

B1: CPF-4: 16 amino acid chain (SEQ ID NO:2) disulfide bonded to the 54 amino acid chain of MPF-4 (SEQ ID NO:1) (protein)
chain 1: EAEEDGDLQCLCVKTT
chain 2: SQVRPRHITSLEVIKAGPHCPTAQLIATLKNGRKICLDLQAPLYKKIIKKLLES
modifications: disulfide I:10-II:20, I:12-II:36; not fully specified
Take B1: in the assay on endothelial cells, the “IC50, inhibition” value is recorded as “approximately 150 ng/ml” and the IC50 is 20 nM. Further, in assay [1], the heparin binding entry is listed as “bind heparin”.
